Laboratory results taken from patent US20130184257A1, “PIPERIDINYL-SUBSTITUTED LACTAMS AS GPR119 MODULATORS” (priority 2010, published 2013).

System: modified version of the GPR119 receptor (94% identity to human receptor) stably expressed in HEK-293 cells
Experiment: cAMP Production Assay (LANCE cAMP kit, TR-FRET)
Type: cell-based
Conditions: for cAMP production in HEK-293 cells: HEK-293 cells expressing modified GPR119, test compounds 0.2 nM to 10 μM, one-hour incubation at ambient temperature; for Fold over baseline: increase in cAMP relative to basal levels, 1.5-fold or greater = agonist activity
Experimental: The assay utilized HEK-293 cells that stably express a modified version of the GPR119 receptor (94% identity to human receptor), under the control of a CMV promoter containing a tet-on element for tetracycline-inducible expression. GPR119 agonist-induced cyclic AMP (cAMP) production was measured in this cell line using the LANCE cAMP kit (Perkin Elmer, Waltham, Mass.). To generate a working stock of cells for the assay, cells were treated overnight with 1 μg/mL doxycycline at 37° C. in the presence of 5% CO2 to induce receptor expression. Cells were then harvested by enzymatic dissociation with 0.05% trypsin, resuspended in freezing medium (DMEM growth medium with 10% each of fetal bovine serum and DMSO), aliquoted and frozen at −80° C. On the day of the assay, frozen cells were thawed, washed 1× in PBS and resuspended in Hank's buffered salt solution (HBSS) containing 5 mM HEPES, 0.1% BSA and Alexa Fluor 647-conjugated anti-cAMP antibody (diluted 1:100). The cell suspension was then transferred to a Proxiplate Plus white 384-well assay plate (Perkin-Elmer) at 2000 cells/well. Test compounds at final concentrations ranging from 0.2 nM to 10 μM were added to the assay plate, followed by a one-hour incubation at ambient temperature (volume=10 μL/well). DMSO concentration was held constant at 0.5%. After incubation with test compounds, 10 μL of a detergent buffer containing a biotinylated cAMP/Europium-conjugated streptavidin complex (Europium-labeled cAMP tracer) were added to each well on the assay plate, followed by a 2-hour incubation at ambient temperature. During this incubation cAMP released from lysed cells competes with the Europium-labeled cAMP tracer for binding to the Alexa Fluor 647-conjugated antibody. […] Cellular cAMP levels were then determined by interpolation of raw signal data using a cAMP standard curve. Compounds were determined to have agonist activity if they stimulated a 1.5-fold or greater increase in cAMP relative to basal levels.

Row | Structure (SMILES) | cAMP production in HEK-293 cells [nmol] | Fold over baseline
1 | CS(=O)(=O)c1cc(F)c(O[C@@H]2CCN(C3CCN(c4noc(C(F)(F)F)n4)CC3)C2=O)cc1F (single isomer, unassigned) [Example 66] | 8.7 | 2.7
2 | CC(C)c1noc(N2CCC(N3CC[C@H](Oc4cc(F)c(S(C)(=O)=O)cc4F)C3=O)CC2)n1 [Example 1, (S)-3-(2,5-difluoro-4-(methylsulfonyl)phenoxy)-1-(1-(3-isopropyl-1,2,4-oxadiazol-5-yl)piperidin-4-yl)pyrrolidin-2-one] | 25.0 | 4.6
3 | CC(C)c1noc(N2CCC(N3CC[C@H](Oc4ccc(S(C)(=O)=O)cc4F)C3=O)CC2)n1 [Example 2, (S)-3-(2-fluoro-4-(methylsulfonyl)phenoxy)-1-(1-(3-isopropyl-1,2,4-oxadiazol-5-yl)piperidin-4-yl)pyrrolidin-2-one] | 27.4 | 5.6
4 | CC(C)(C)c1noc(N2CCC(N3CC[C@H](Oc4cc(F)c(S(C)(=O)=O)cc4F)C3=O)CC2)n1 [Example 3, (S)-1-(1-(3-tert-butyl-1,2,4-oxadiazol-5-yl)piperidin-4-yl)-3-(2,5-difluoro-4-(methylsulfonyl)phenoxy)pyrrolidin-2-one] | 21.7 | 3.3
5 | CC(C)c1noc(N2CCC(N3CC[C@@H](Oc4cc(F)c(S(C)(=O)=O)cc4F)C3=O)CC2)n1 [Example 4, (R)-3-(2,5-difluoro-4-(methylsulfonyl)phenoxy)-1-(1-(3-isopropyl-1,2,4-oxadiazol-5-yl)piperidin-4-yl)pyrrolidin-2-one] | 18.7 | 3.9
6 | CC(C)(C)c1noc(N2CCC(N3CC[C@H](Oc4ccc(S(C)(=O)=O)cc4F)C3=O)CC2)n1 [Example 5, (S)-1-(1-(3-tert-butyl-1,2,4-oxadiazol-5-yl)piperidin-4-yl)-3-(2-fluoro-4-(methylsulfonyl)phenoxy)pyrrolidin-2-one] | 22.7 | 4.8
7 | CCc1noc(N2CCC(N3CC[C@H](Oc4ccc(S(C)(=O)=O)cc4F)C3=O)CC2)n1 [Example 6, (S)-1-(1-(3-ethyl-1,2,4-oxadiazol-5-yl)piperidin-4-yl)-3-(2-fluoro-4-(methylsulfonyl)phenoxy)pyrrolidin-2-one] | 22.5 | 4.9
8 | CC(C)c1noc(N2CCC(N3CCC[C@H](Nc4ccc(S(C)(=O)=O)cc4F)C3=O)CC2)n1 [Example 7, (S)-3-(2-fluoro-4-(methylsulfonyl)phenylamino)-1′-(3-isopropyl-1,2,4-oxadiazol-5-yl)-1,4′-bipiperidin-2-one] | 27.8 | 5.7
9 | CC(C)c1noc(N2CCC(N3CC[C@H](Nc4ccc(S(C)(=O)=O)cc4F)C3=O)CC2)n1 [Example 8, (S)-3-(2-fluoro-4-(methylsulfonyl)phenylamino)-1-(1-(3-isopropyl-1,2,4-oxadiazol-5-yl)piperidin-4-yl)pyrrolidin-2-one] | 25.0 | 4.9
10 | CS(=O)(=O)c1cc(F)c(N[C@H]2CCCN(C3CCN(c4nc(C(F)(F)F)no4)CC3)C2=O)cc1F [Example 9, (S)-3-(2,5-difluoro-4-(methylsulfonyl)phenylamino)-1′-(3-trifluoromethyl-1,2,4-oxadiazol-5-yl)-1,4′-bipiperidin-2-one] | 11.4 | 3.5
11 | CS(=O)(=O)c1cc(F)c(N[C@H]2CCCN(C3CCN(c4nc(C(F)(F)F)no4)CC3)C2=O)c(F)c1 [Example 10, (S)-3-(2,6-difluoro-4-(methylsulfonyl)phenylamino)-1′-(3-trifluoromethyl-1,2,4-oxadiazol-5-yl)-1,4′-bipiperidin-2-one] | 8.3 | 2.9
12 | CS(=O)(=O)c1cc(F)c(O[C@H]2CCN(C3CCN(c4nc(C(F)(F)F)no4)CC3)C2=O)cc1F [Example 11, (S)-1-(1-(3-trifluoromethyl-1,2,4-oxadiazol-5-yl)piperidin-4-yl)-3-(2,5-difluoro-4-(methylsulfonyl)phenoxy)pyrrolidin-2-one] | 13.5 | 4.0
13 | CC(C)c1nc(N2CCC(N3CCC[C@H](Nc4c(F)cc(S(C)(=O)=O)cc4F)C3=O)CC2)no1 [Example 12, (S)-3-(2,6-difluoro-4-(methylsulfonyl)phenylamino)-1′-(5-isopropyl-1,2,4-oxadiazol-3-yl)-1,4′-bipiperidin-2-one] | 16.1 | 3.4
14 | CS(=O)(=O)c1ccc(N[C@H]2CCN(C3CCN(c4noc(C(Cl)(Cl)Cl)n4)CC3)C2=O)c(F)c1 [Example 13, (S)-3-(2-fluoro-4-(methylsulfonyl)phenylamino)-1-(1-(5-(trichloromethyl)-1,2,4-oxadiazol-3-yl)piperidin-4-yl)pyrrolidin-2-one] | 17.3 | 3.0
15 | CC(C)c1nc(N2CCC(N3CCC[C@H](Nc4ccc(S(C)(=O)=O)cc4F)C3=O)CC2)no1 [Example 14, (S)-3-(2-fluoro-4-(methylsulfonyl)phenylamino)-1′-(5-isopropyl-1,2,4-oxadiazol-3-yl)-1,4′-bipiperidin-2-one] | 18.9 | 3.5
16 | CC(C)c1nc(N2CCC(N3CC[C@H](Nc4ccc(S(C)(=O)=O)cc4F)C3=O)CC2)no1 [Example 15, (S)-3-(2-fluoro-4-(methylsulfonyl)phenylamino)-1-(1-(5-isopropyl-1,2,4-oxadiazol-3-yl)piperidin-4-yl)pyrrolidin-2-one] | 20.8 | 3.8
17 | CS(=O)(=O)c1ccc(N[C@H]2CCN(C3CCN(c4noc(C(F)(F)F)n4)CC3)C2=O)c(F)c1 [Example 16, (S)-3-(2-fluoro-4-(methylsulfonyl)phenylamino)-1-(1-(5-(trifluoromethyl)-1,2,4-oxadiazol-3-yl)piperidin-4-yl)pyrrolidin-2-one] | 17.0 | 4.3
18 | CS(=O)(=O)c1cc(F)c(O[C@H]2CCN(C3CCN(c4noc(-c5ccccc5)n4)CC3)C2=O)cc1F [Example 17, (S)-3-(2,5-difluoro-4-(methylsulfonyl)phenoxy)-1-(1-(5-phenyl-1,2,4-oxadiazol-3-yl)piperidin-4-yl)pyrrolidin-2-one] | 28.3 | 4.8
19 | CC(C)c1nc(N2CCC(N3CC[C@H](Oc4ccc(S(C)(=O)=O)cc4F)C3=O)CC2)no1 [Example 18, (S)-3-(2-fluoro-4-(methylsulfonyl)phenoxy)-1-(1-(5-isopropyl-1,2,4-oxadiazol-3-yl)piperidin-4-yl)pyrrolidin-2-one] | 19.4 | 3.7
20 | CC(C)c1nc(N2CCC(N3CC[C@H](Oc4cc(F)c(S(C)(=O)=O)cc4F)C3=O)CC2)no1 [Example 19, (S)-3-(2,5-difluoro-4-(methylsulfonyl)phenoxy)-1-(1-(5-isopropyl-1,2,4-oxadiazol-3-yl)piperidin-4-yl)pyrrolidin-2-one] | 24.9 | 4.1
21 | CC(C)c1nc(N2CCC(N3CC[C@H](Oc4c(F)cc(S(C)(=O)=O)cc4F)C3=O)CC2)no1 [Example 20, (S)-3-(2,6-difluoro-4-(methylsulfonyl)phenoxy)-1-(1-(5-isopropyl-1,2,4-oxadiazol-3-yl)piperidin-4-yl)pyrrolidin-2-one] | 19.4 | 3.7
22 | CS(=O)(=O)c1ccc(N[C@H]2CCN(C3CCN(c4noc(C(F)F)n4)CC3)C2=O)c(F)c1 [Example 21, (S)-1-(1-(5-(difluoromethyl)-1,2,4-oxadiazol-3-yl)piperidin-4-yl)-3-(2-fluoro-4-(methylsulfonyl)phenylamino)pyrrolidin-2-one] | 21.0 | 2.8
23 | CS(=O)(=O)c1cc(F)c(N[C@H]2CCN(C3CCN(c4noc(C(F)(F)F)n4)CC3)C2=O)c(F)c1 [Example 22, (S)-3-(2,6-difluoro-4-(methylsulfonyl)phenylamino)-1-(1-(5-(trifluoromethyl)-1,2,4-oxadiazol-3-yl)piperidin-4-yl)pyrrolidin-2-one] | 17.6 | 3.6
24 | CS(=O)(=O)c1cc(F)c(N[C@H]2CCN(C3CCN(c4noc(C(F)(F)F)n4)CC3)C2=O)cc1F [Example 23, (S)-3-(2,5-difluoro-4-(methylsulfonyl)phenylamino)-1-(1-(5-(trifluoromethyl)-1,2,4-oxadiazol-3-yl)piperidin-4-yl)pyrrolidin-2-one] | 19.2 | 3.6
